# Structures can show the parent of a compound that is named as a salt.
# Target: kinase domain of IRE1 alpha (His-tagged kinase dead construct KR, AA G547-L977, D688N) (Homo sapiens (Human), UniProt O75460, D688N)
# Assay: IRE1α TR-FRET competition binding assay
# Settings: competition with Kinase Tracer 236, 0.1 μM; one hour at room temperature
# How it was run: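 Compound displacement of an ATP-site fluorescent tracer (0.1 μM final) measured by TR-FRET after 1 h at room temperature. Protein, a His-tagged D688N kinase/RNase construct from Sf9 cells (0.006 μM final), was pre-bound 1 h at 4° C to Eu anti-His antibody (0.002 μM) in pH 7.5 HEPES buffer.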
# Chain of kinase domain of IRE1 alpha (His-tagged kinase dead construct KR, AA G547-L977, D688N) (O75460 547-977 D688N): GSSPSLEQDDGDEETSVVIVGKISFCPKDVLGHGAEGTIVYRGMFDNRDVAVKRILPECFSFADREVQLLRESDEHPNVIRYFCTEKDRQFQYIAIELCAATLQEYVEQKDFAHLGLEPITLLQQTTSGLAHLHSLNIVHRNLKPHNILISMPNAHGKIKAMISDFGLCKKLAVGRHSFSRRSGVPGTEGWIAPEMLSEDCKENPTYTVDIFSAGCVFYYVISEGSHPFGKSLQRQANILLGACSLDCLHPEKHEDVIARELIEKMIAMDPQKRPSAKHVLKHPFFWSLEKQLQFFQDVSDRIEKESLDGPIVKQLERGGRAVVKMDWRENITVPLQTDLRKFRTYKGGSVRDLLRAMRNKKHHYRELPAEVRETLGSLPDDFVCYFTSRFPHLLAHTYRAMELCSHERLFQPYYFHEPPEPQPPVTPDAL
row,Compound,IC50
1,"O=S(=O)(Cc1ccc(Cl)cc1)Nc1ccc(Oc2ncccc2-c2ccnc(N[C@H]3CCCNC3)n2)c(F)c1F [Compound 213, (S)-1-(4-chlorophenyl)-N-(2,3-difluoro-4-((3-(2-(piperidin-3-ylamino)pyrimidin-4-yl)pyridin-2-yl)oxy)phenyl)methanesulfonamide]",5.9 nM
2,"CN1CCN(Cc2ccc(NC(=O)Nc3ccc(Oc4ncccc4-c4ccnc(N[C@@H]5CNC[C@@H](F)C5)n4)cc3)cc2C(F)(F)F)CC1 [Compound 285, 1-(4-((3-(2-(((3S,5S)-5-Fluoropiperidin-3-yl)amino)pyrimidin-4-yl)pyridin-2-yl)oxy)phenyl)-3-(4-((4-methylpiperazin-1-yl)methyl)-3-(trifluoromethyl)phenyl)urea hydrochloride]",8.9 nM
3,"Cc1cc(NS(=O)(=O)C2CCCCC2)cc(F)c1Oc1ncccc1-c1ccnc(N[C@H]2CCCNC2)n1 [Compound 117, (S)-N-(3-fluoro-5-methyl-4-((3-(2-(piperidin-3-ylamino)pyrimidin-4-yl)pyridin-2-yl)oxy)phenyl)cyclohexanesulfonamide hydrochloride]",21 nM
4,"C[C@@]1(F)CNC[C@@H](Nc2nccc(-c3cccnc3Oc3cc(F)c(NS(=O)(=O)Cc4ccc(F)cc4F)c(F)c3F)n2)C1 [Compound 281, 1-(2,4-Difluorophenyl)-N-(2,3,6-trifluoro-4-((3-(2-(((3S,5S)-5-fluoro-5-methylpiperidin-3-yl)amino)pyrimidin-4-yl)pyridin-2-yl)oxy)phenyl)methanesulfonamide]",0.34 nM
5,"O=S(=O)(Cc1ccccc1)Nc1c(F)cc(Oc2ncccc2-c2ccnc(CC3CCCNC3)n2)c(F)c1F (single isomer, unassigned) [Compound 199, 1-Phenyl-N-(2,3,6-trifluoro-4-((3-(2-(3-piperidylmethyl)pyrimidin-4-yl)-2-pyridyl)oxy)phenyl)methanesulfonamide]",110 nM
6,"CC1(CF)CNCC(Nc2nccc(-c3cccnc3Oc3cc(F)c(NS(=O)(=O)Cc4ccccc4)c(F)c3F)n2)C1 (single isomer, unassigned) [Compound 295, 1-Phenyl-N-(2,3,6-trifluoro-4-((3-(2-((5-(fluoromethyl)-5-methylpiperidin-3-yl)amino)pyrimidin-4-yl)pyridin-2-yl)oxy)phenyl)methanesulfonamide]",41 nM
7,"N#Cc1ccc(CS(=O)(=O)Nc2ccc(Oc3ncccc3-c3ccnc(N[C@H]4CCCNC4)n3)c(F)c2F)cc1 [Compound 250, (S)-1-(4-Cyanophenyl)-N-(2,3-difluoro-4-((3-(2-(piperidin-3-ylamino)pyrimidin-4-yl)pyridin-2-yl)oxy)phenyl)methanesulfonamide]",4.9 nM
8,"CCC1CCN(c2ccc(Oc3ncccc3-c3ccnc(N[C@H]4CCCNC4)n3)c(F)c2F)C1=O (single isomer, unassigned) [Compound 249]",160 nM
9,"Cc1cc(NS(=O)(=O)c2ccccc2Cl)cc(F)c1Oc1ncccc1-c1ccnc(N[C@H]2CCCNC2)n1 [Compound 114, (S)-2-chloro-N-(3-fluoro-5-methyl-4-((3-(2-(piperidin-3-ylamino)pyrimidin-4-yl)pyridin-2-yl)oxy)phenyl)benzenesulfonamide hydrochloride]",7.3 nM
10,"Cc1cc(NS(=O)(=O)Cc2ccccc2)c(F)c(F)c1Oc1ncccc1-c1ccnc(N[C@@H]2CNC[C@@H](F)C2)n1 [Compound 178, N-(2,3-difluoro-4-((3-(2-(((3S,5S)-5-fluoro-3-piperidyl)amino)pyrimidin-4-yl)-2-pyridyl)oxy)-5-methyl-phenyl)-1-phenyl-methanesulfonamide]",3.5 nM
11,"O=S(=O)(Cc1ccc(C(F)(F)F)nc1)Nc1c(F)cc(Oc2ncccc2-c2ccnc(N[C@@H]3CNC[C@@H](F)C3)n2)c(F)c1F [Compound 254, N-(2,3,6-Trifluoro-4-((3-(2-(((3S,5S)-5-fluoropiperidin-3-yl)amino)pyrimidin-4-yl)pyridin-2-yl)oxy)phenyl)-1-(6-(trifluoromethyl)pyridin-3-yl)methanesulfonamide]",0.62 nM
12,"Cc1ccc(CS(=O)(=O)Nc2c(F)cc(Oc3ncccc3-c3ccnc(N[C@@H]4CNC[C@@H](F)C4)n3)c(F)c2F)c(F)c1 [Compound 384, 1-(2-Fluoro-4-methylphenyl)-N-(2,3,6-trifluoro-4-((3-(2-(((3S,5S)-5-fluoropiperidin-3-yl)amino)pyrimidin-4-yl)pyridin-2-yl)oxy)phenyl)methanesulfonamide]",0.3 nM
13,"O=S(=O)(CC1CCC1)Nc1ccc(Oc2ncccc2-c2ccnc(N[C@H]3CCCNC3)n2)c(F)c1F [Compound 173, (S)-1-cyclobutyl-N-(2,3-difluoro-4-((3-(2-(piperidin-3-ylamino)pyrimidin-4-yl)pyridin-2-yl)oxy)phenyl)methanesulfonamide]",8.3 nM
14,"O=S(=O)(Cc1ccc(C(F)(F)F)cc1)Nc1c(F)cc(Oc2ncccc2-c2ccnc(N[C@@H]3CNC[C@@H](F)C3)n2)c(F)c1F [Compound 370, N-(2,3,6-Trifluoro-4-((3-(2-(((3S,5S)-5-fluoropiperidin-3-yl)amino)pyrimidin-4-yl)pyridin-2-yl)oxy)phenyl)-1-(4-(trifluoromethyl)phenyl)methanesulfonamide]",2 nM
15,"O=S(=O)(CC1CCC1(F)F)Nc1c(F)cc(Oc2ncccc2-c2ccnc(N[C@@H]3CNC[C@@H](F)C3)n2)c(F)c1F (single isomer, unassigned) [Compound 264]",1.6 nM
16,"Cc1cc(CS(=O)(=O)Nc2c(F)cc(Oc3ncccc3-c3ccnc(N[C@H]4CCCNC4)n3)c(F)c2F)no1 [Compound 195, (S)-1-(5-methylisoxazol-3-yl)-N-(2,3,6-trifluoro-4-((3-(2-(piperidin-3-ylamino)pyrimidin-4-yl)pyridin-2-yl)oxy)phenyl)methanesulfonamide]",4.6 nM
17,"COCCN(C)[C@H]1CC[C@H](Nc2nccc(-c3cccnc3Oc3cc(F)c(NS(=O)(=O)C4CCCCC4)c(F)c3F)n2)CC1 [Compound 350, N-(2,3,6-Trifluoro-4-((3-(2-(((1r,4r)-4-((2-methoxyethyl)(methyl)amino)cyclohexyl)amino)pyrimidin-4-yl)pyridin-2-yl)oxy)phenyl)cyclohexanesulfonamide]",0.42 nM
18,"CC(F)C1CNCC(Nc2nccc(-c3cccnc3Oc3cc(F)c(NS(=O)(=O)Cc4ccccc4)c(F)c3F)n2)C1 (single isomer, unassigned) [Compound 343, 1-Phenyl-N-(2,3,6-trifluoro-4-((3-(2-((5-(1-fluoroethyl)piperidin-3-yl)amino)pyrimidin-4-yl)pyridin-2-yl)oxy)phenyl)methanesulfonamide hydrochloride]",0.78 nM
19,"O=S(=O)(Cc1ccccc1)Nc1ccc(Oc2ncccc2-c2ccnc(N[C@H]3CCCNC3)n2)cc1F [Compound 106, (S)-N-(2-fluoro-4-((3-(2-(piperidin-3-ylamino)pyrimidin-4-yl)pyridin-2-yl)oxy)phenyl)-1-phenylmethanesulfonamide hydrochloride]",5.7 nM
20,"COc1ccc(CS(=O)(=O)Nc2c(F)cc(Oc3ncccc3-c3ccnc(N[C@@H]4CNC[C@@](C)(F)C4)n3)c(F)c2F)cc1 [Compound 304, 1-(4-Methoxyphenyl)-N-(2,3,6-trifluoro-4-((3-(2-(((3S,5S)-5-fluoro-5-methylpiperidin-3-yl)amino)pyrimidin-4-yl)pyridin-2-yl)oxy)phenyl)methanesulfonamide]",0.23 nM
21,"Cc1cc(F)ccc1CS(=O)(=O)Nc1c(F)cc(Oc2ncccc2-c2ccnc(N[C@@H]3CNC[C@@H](F)C3)n2)c(F)c1F [Compound 322, 1-(4-Fluoro-2-methylphenyl)-N-(2,3,6-trifluoro-4-((3-(2-(((3S,5S)-5-fluoropiperidin-3-yl)amino)pyrimidin-4-yl)pyridin-2-yl)oxy)phenyl)methanesulfonamide]",0.42 nM
22,"O=S(=O)(Cc1ccccc1)Nc1c(F)cc(Oc2ncccc2-c2ccnc(NC3CNCC4(C3)CC4(F)F)n2)c(F)c1F (single isomer, unassigned) [Compound 299, N-(4-((3-(2-((1,1-Difluoro-5-azaspiro[2.5]octan-7-yl)amino)pyrimidin-4-yl)pyridin-2-yl)oxy)-2,3,6-trifluorophenyl)-1-phenylmethanesulfonamide]",0.38 nM
23,"Cc1cc(NS(=O)(=O)c2ccccc2Cl)cc(F)c1Oc1ncccc1-c1ccnc(N[C@H]2CC[C@H](N)CC2)n1 [Compound 102, N-[4-[[3-[2-[(4-aminocyclohexyl)amino]pyrimidin-4-yl]-2-pyridyl]oxy]-3-fluoro-5-methyl-phenyl]-2-chloro-benzenesulfonamide hydrochloride]",10 nM
24,"O=S(=O)(Cc1ccc(Cl)cc1)Nc1c(F)cc(Oc2ncccc2-c2ccnc(N[C@@H]3CNC[C@@H](F)C3)n2)c(F)c1F [Compound 354, 1-(4-Chlorophenyl)-N-[2,3,6-trifluoro-4-[[3-[2-[[(3S,5S)-5-fluoro-3-piperidyl]amino]pyrimidin-4-yl]-2-pyridyl]oxy]phenyl]methanesulfonamide]",0.2 nM
25,"Cc1cc(Oc2ncccc2-c2ccnc(N[C@@H]3CNC[C@@H](F)C3)n2)c(F)c(F)c1NS(=O)(=O)Cc1ccccc1 [Compound 280, N-(2,3-Difluoro-4-((3-(2-(((3S,5S)-5-fluoropiperidin-3-yl)amino)pyrimidin-4-yl)pyridin-2-yl)oxy)-6-methylphenyl)-1-phenylmethanesulfonamide]",0.31 nM
26,"O=S(=O)(CC12CCC(CC1)CC2)Nc1c(F)cc(Oc2ncccc2-c2ccnc(N[C@@H]3CNC[C@@H](F)C3)n2)c(F)c1F [Compound 377, 1-(Bicyclo[2.2.2]octan-1-yl)-N-(2,3,6-trifluoro-4-((3-(2-(((3S,5S)-5-fluoropiperidin-3-yl)amino)pyrimidin-4-yl)pyridin-2-yl)oxy)phenyl)methanesulfonamide]",0.8 nM
